Measurements: patent US20130209986A1, “METHOD FOR ENHANCING BUTYRATE PRODUCTION BY CLOSTRIDIUM TYROBUTYRICUM” (KOREA INSTITUTE OF SCIENCE AND TECHNOLOGY, priority 2012, published 2013)

Experiments:
[1] = system: Clostridium tyrobutyricum strains; assay: Fermentation of Clostridium tyrobutyricum with an electron transfer mediator added to the P2 culture medium (Experimental Example 1); format: cell-based; conditions: for Enhancement of butyrate production by simply adding the mediator to the medium: simple addition, no reduction electrode
Protocol: The P2 culture medium (Qureshi and Blaschek 1999) of pH 6.4±0.1 containing sucrose of 20 g/L instead glucose was sterilized. The Methyl Viologen (MV) (E°′=−446 mV) (Aldrich, South Korea) was added to the sterilized P2 culture medium with the concentrations of 0.1 mM (embodiment 1-1), 0.4 mM (embodiment 1-2), 0.5 mM (embodiment 1-3), 1.0 mM (embodiment 1-4), 2.0 mM (embodiment 1-5), 5.0 mM (embodiment 1-6) and 10.0 mM (embodiment 1-7). The separated Clostridium tyrobutyricum strains were inoculated on the MV-added P2 culture medium and were cultured at 37° C. and 150 rpm.
The strains were cultured under the same conditions as the conditions of the embodiments 1-1 to 1-7 except for the strains which didn't have an added MV.
The strains were cultured under the same conditions as the conditions of the embodiments 1-1 to 1-7 except for the strains on which 0.1 mM and 0.5 mM of the Neutral Red (NR) (E°′=−325 mV) (Aldrich, South Korea) were added instead of the MV.
The strains were cultured under the same conditions as the conditions of the embodiments 1-1 to 1-7 except for the strains on which 0.5 mM of anthraquinone-1,5-disulfonic acid, AQDS) (E°′=−184 mV) (Aldrich, South Korea) was added instead of the MV.
The butyrate and acetate produced through the embodiments 1-1 to 1-7, the comparison example 1, the comparison examples 2-1 to 2-7 and the comparison examples 3-1 to 3-7 were analyzed by HP-INNOWax column (30 m×250 μm×0.25 μm, Agilent Technologies and the gas chromatography (GC, Agilent technology 6890N Network GC System) with the frame-ionized detector. The hydrogen and carbon dioxide were quantified by multiplying the gas composition with the increased gas volume. The gas composition percentage was analyzed by the GC having a heat conductivity detector. The consumed sucrose concentration was quantified by a high performance liquid chromatography (HPLC) (Hi-plex H, Agilent, Santa Clara, Calif.) with 5 mM of sulfuric acid as a mobile phase at the flow rate of 0.5 mLmin^−1. The growth of microorganisms was checked at 600 nm of absorbance by using Shimadzu UVmini-1240 spectrophotometer or was checked with the Chemical Oxygen Demand (COD, mg/L unit) induced by the base soluble COD from the total COD by using COD vials (C-mac, South Korea, concentration range of 10-1,500 mg/L). The obtained values were average values obtained as the experiments were repeatedly performed three times or four times under a corresponding condition.

[2] = system: Clostridium tyrobutyricum; assay: Fermentation of Clostridium tyrobutyricum in a bioelectrical reactor (BER) with reduction electrode and electron transfer mediator (Experimental Example 2); format: cell-based
Protocol: A Bioelectrical Reactor (BER) formed of Pyrex was manufactured, which was specially designed for the sake of the anaerobic bacteria culture by changing a little the H-type reactor with a dual chamber (450 mL each). The reduction electrode (cathode) was a graphite felt electrode (4.5 cm×12 cm), and the oxidation electrode (anode) was a Pt plate electrode (2.5 cm×5 cm). The reference electrode was Ag/AgCl, 3 M KCl (BASi, West Lafayette, Ind.) and was dipped at a portion of the reduction electrode. The portions of the oxidation electrode and the reduction electrode were separated by Nafion 117 positive ion-exchange membrane (Naracell-tech, South Korea). The biological gas was collected by a Tedlar bag connected with a stainless steel fitting inserted in a reduction electrode stopper. The temperature of the reactor was maintained at 37±1° C. by a heating tape (Daihan, South Korea). The temperature sensor was inserted into a partition of the oxidation electrode by way of the stainless steel stand rod.
The portion of the reduction electrode of the reactor has features in that the neutral red was filled with the P2 medium added with 0.1 mM, and the portion of the oxidation electrode was filled with hexacyanoferrate [K4(Fe(CN)6)·3H2O]. The BER operated under a constant reduction electrode potential of −400 mV (vs. Ag/AgCl). The above mentioned potential was set by the potentiostat/galvanostat (EG&G Princeton Applied Research, Model 273A, Princeton, N.J.) which could be controlled by a computer. So, the current between the oxidation electrode and the reduction electrode was monitored. The reduction voltage applied to the reduction electrode was determined from the redox peak in the cyclic voltammogram of the culture liquid to which the neutral red was added at the scan speed of 20 mV/s based on the reduction electrode versus Ag/AgCl. The reduction of the neutral red by the reduction electrode appeared as the color of the solution turned from the red (NRox) to the yellow (NRred) when it was balanced to the negative potential within 5-30 minutes. For the sake of pH-adjusted BER operation, pH was maintained at 6 by temporarily adding 3M NaOH.
The embodiment 3 was performed in the same manner as the embodiment 2 except for the adjustment of pH.
The embodiment 4 was performed in the same manner as the embodiment 2 except that the portion of the reduction electrode of the reactor was filed with the P2 medium added with the MV of 0.5 mM of concentration was operated under a constant reduction electrode potential of −750 mV (vs. Ag/AgCl). In case of the MV, the reduction had features in that the color of the solution turned from a colorlessness (MVox) to a purple color (MVred).

[3] = methyl viologen 0.1 mM (embodiment 1-1)
[4] = methyl viologen 0.4 mM (embodiment 1-2)
[5] = methyl viologen 0.5 mM (embodiment 1-3)
[6] = methyl viologen 1 mM (embodiment 1-4)
[7] = methyl viologen 2 mM (embodiment 1-5)
[8] = methyl viologen 5 mM (embodiment 1-6)
[9] = methyl viologen 10 mM (embodiment 1-7)
[10] = Embodiment 4: methyl viologen 0.5 mM, −750 mV
[11] = Embodiment 2: BER with neutral red 0.1 mM, −400 mV, pH 6 controlled
[12] = Embodiment 3: BER with neutral red 0.1 mM, −400 mV, no pH control

## O=C1c2cccc(S(=O)(=O)O)c2C(=O)c2cccc(S(=O)(=O)O)c21 [AQDS, anthraquinone-1,5-disulfonic acid]
[1]
  Enhancement of butyrate production by simply adding the mediator to the medium: impossible to enhance the production of butyrate

## C[n+]1ccc(-c2cc[n+](C)cc2)cc1 [Methyl viologen, Methyl Viologen]
[1]; 0.5 mM, simple addition without reduction electrode
  Final concentration of butyrate as compared to the comparison group: about 1.5 times
[1]; mediators added at 0.5 mM
  Production of butyrate among MV, NR and AQDS (FIG. 2): highest
[1]; [3]
  Bio-gas % vs. control: 82%
  Bio-gas vol: 110 mL
  Butyrate % vs. control: 115%
  Butyrate final conc.: 6.5 g/L
[1]; methyl viologen 0.1 mM (embodiment 1-1), P2 medium sucrose 20 g/L, 37° C.
  OD (600 nm): 6.2 (±0.4)
[1]; [4]
  Bio-gas % vs. control: 80%
  Bio-gas vol: 107 mL
  Butyrate % vs. control: 128%
  Butyrate final conc.: 7.3 g/L
  OD (600 nm): 6.3 (±0)^
[1]; [5]
  Bio-gas % vs. control: 65%
  Bio-gas vol: 87 mL
  Butyrate % vs. control: 150%
  Butyrate final conc.: 8.5 g/L
  OD (600 nm): 5.8 (±0.3)
[1]; [6]
  Bio-gas % vs. control: 50%
  Bio-gas vol: 67 mL
  Butyrate % vs. control: 109%
  Butyrate final conc.: 6.2 g/L
  OD (600 nm): 5.4 (±0.8)
[1]; [7]
  Bio-gas % vs. control: 34%
  Bio-gas vol: 46 mL
  Butyrate % vs. control: 112%
  Butyrate final conc.: 6.4 g/L
  OD (600 nm): 3.9 (±0.9)
[1]; [8]
  Bio-gas % vs. control: 3%
  Bio-gas vol: 4 mL
  Butyrate % vs. control: 14%
  Butyrate final conc.: 0.8 g/L
  OD (600 nm): 1.5 (±1.9)
[1]; [9]
  Bio-gas % vs. control: 3%
  Bio-gas vol: 4 mL
  Butyrate % vs. control: 12%
  Butyrate final conc.: 0.7 g/L
  OD (600 nm): 0.2 (±0.1)
[2]; [10]
  Acetate productivity (maximum productivity): 0.25 ± 0 g/L, h^−1
  Butyrate productivity (maximum productivity): 0.34 ± 0.01 g/L, h^−1
  Butyrate yield: 0.43 ± 0.02 g butyrate/g sucrose
  Final butyrate concentration: 7.1 ± 0.4 g/L
  Maximum O.D. (600 nm): 5.3 ± 0.4
  Specific growth rate: 0.10 ± 0.01 h⁻¹
  Sucrose uptake rate (maximum uptake rate): 0.85 ± 0.05 g/L, h^−1
[2]; MV, embodiment 4, −750 mV vs. Ag/AgCl
  Production of butyrate in the reduction electrode system: didn't help enhance the production of butyrate

## Cc1cc2nc3ccc(N(C)C)cc3nc2cc1N.Cl [neutral red, Neutral Red]
[1]
  Enhancement of butyrate production by simply adding the mediator to the medium: didn't make any effects
[1]; listed as NR
  Enhancement of butyrate production by simply adding the mediator to the medium: impossible to enhance the production of butyrate
[2]; [11]
  Acetate productivity (maximum productivity): 0 g/L, h^−1
  Butyrate productivity (maximum productivity): 0.28 ± 0.01 g/L, h^−1
  Butyrate yield: 0.44 ± 0.04 g butyrate/g sucrose
  Final butyrate concentration: 8.8 ± 0.9 g/L
  Maximum O.D. (600 nm): 5.1 ± 0.7
  Specific growth rate: 0.87 ± 0.64 h⁻¹
  Sucrose uptake rate (maximum uptake rate): 0.67 ± 0 g/L, h^−1
[2]; [12]
  Acetate productivity (maximum productivity): 0 g/L, h^−1
  Butyrate productivity (maximum productivity): 0.31 ± 0.07 g/L, h^−1
  Butyrate yield: 0.45 ± 0.02 g butyrate/g sucrose
  Final butyrate concentration: 6.7 ± 0.3 g/L
  Maximum O.D. (600 nm): 5.0 ± 0.4
  Specific growth rate: 0.11 ± 0.01 h⁻¹
  Sucrose uptake rate (maximum uptake rate): 0.64 ± 0.31 g/L, h^−1
[2]; embodiment 2, neutral red reduction electrode system, increased from 5 g/L
  Production of butyrate (FIG. 4): 8 g/L
[2]; embodiments 2 and 3, neutral red
  Acetic acid production in the reduction electrode system: did not produce acetic acid
[2]; neutral red, embodiments 2 and 3, −400 mV vs. Ag/AgCl
  Production of butyrate in the reduction electrode system: increase in the production of butyrate
